# Data reported in patent US11559575B2, “Multi-epitopic peptide compounds and vaccines against leishmaniasis” (INSTITUT DE RECHERCHE POUR LE DEVELOPPEMENT, priority 2018, dated 2023).
# “Also recorded” adds a separate entry of the source.
# System: HLA alleles of class II
# Test: Affinity of epitopes for HLA alleles of class II
# Format: binding, human
# Conditions: for Concatenation affinity for the HLA alleles of class II: H2B-II peptides; for Concatenation affinity for the HLA alleles of class II / Affinity HLA alleles of class II: Table 1; for Affinity HLA alleles of class II: H2B-II core epitopes
# From the text: The multiepitopic peptide compounds (24 to 40-mer), having a high affinity with a maximized number of HLA molecules of class I and of class II, such as the affinities for the alleles HLA of class I and HLA of class II of the epitopes in the peptides of the sequences SEQ ID NO: 22, 23, 65, 66, 69, 73, 77, 96, 97, 137, 138, and 157, 185, have a high immunoprevalent potential corresponding to an optimal vaccine coverage, in particular for the populations concerned. The degree of coverage of the peptide compounds of the invention show a very high added value compared with the peptides of the prior art.
sequence,measurement,setting,value
AINAQMSMSHRTMKI (Leishmania major) [SEQ ID NO: 40],Concatenation affinity for the HLA alleles of class II,,"HLA-DRB1*01:01, HLA-DRB1*04:01, HLA-DRB1*09:01,; also recorded: HLA-DRB1*15:01, HLA-DRB4*01:01, HLA-DRB5*01:01,; also recorded: HLA-DRB3*01:01, HLA-DRB1*11:01, HLA-DRB1*07:01"
AIVTSRKVQ (Leishmania major) [SEQ ID NO: 119],Concatenation affinity for HLA alleles of class II,"LmlRAB-IIB core, Table 2",HLA-DRB1*11:01
AIVTSRKVQEEVFDL (Leishmania major) [SEQ ID NO: 98],Concatenation affinity for HLA alleles of class II,"LmlRAB-IIB peptides, Table 2","HLA-DRB1*03:01, HLA-DRB1*11:01,; also recorded: HLA-DRB1*12:01"
AQMSMSHRT (Leishmania major) [SEQ ID NO: 42],Affinity HLA alleles of class II,,HLA-DRB1*07:01
DFSNMGLLL (listed as Leishmania infantum) [SEQ ID NO: 171],Concatenation affinity for HLA alleles of class II,"PSA KC-2.7 core, Table 3","HLA-DPA1*01:03/; also recorded: DPB1*04:01,; also recorded: HLA-DPA1*03:01/; also recorded: DPB1*04:02"
DLFTDVHYSEVSAKT (Leishmania major) [SEQ ID NO: 99],Concatenation affinity for HLA alleles of class II,"LmlRAB-IIB peptides, Table 2","HLA-DRB1*04:01, HLA-DRB7*01:01,; also recorded: HLA-DPA1*01:03/DPB1*02:01,; also recorded: HLA-DPA1*01/DPB1*04:01, HLA-DPA1*02:01/; also recorded: HLA-DPB1*14:01"
DYSHSMIRDLDFSNM (listed as Leishmania infantum) [SEQ ID NO: 158],Concatenation affinity for HLA alleles of class II,"PSA KC-2.7 peptides, Table 3","HLA-DRB1*04:01, HLA-DRB1*04:05,; also recorded: HLA-DRB1*07:01, HLA-DRB1*09:01,; also recorded: HLA-DRB1*12:01, HLA-DRB4*01:01,; also recorded: HLA-DPA1*02:01/DPB1*14:01"
EEVFDLFTDVHYSEV (Leishmania major) [SEQ ID NO: 100],Concatenation affinity for HLA alleles of class II,"LmlRAB-IIB peptides, Table 2","HLA-DRB1*01:01, HLA-DRB1*03:01,; also recorded: HLA-DRB1*04:01, HLA-DRB1*04:05,; also recorded: HLA-DRB1*07:01, HLA-DRB1*15:01,; also recorded: HLA-DRB1*12:01, HLA-DRB3*01:01,; also recorded: HLA-DPA1*01:03/DPB1*02:01,; also recorded: HLA-DPA1*01/DPB1*04:01, HLA-DPA1*02:01/; also recorded: HLA-DPB1*14:01"
EGYFLTDEKTSLVYG (listed as Leishmania infantum) [SEQ ID NO: 139],Concatenation affinity for HLA alleles of class II,"PSA KC-2.6 peptides, Table 3","HLA-DRB1*12:01, HLA-DRB1*13:02,; also recorded: HLA-DRB3*01:01, HLA-DRB3*02:02,; also recorded: HLA-DPA1*03:01/DPB1*04:02; also recorded: HLA-DRB1*01:01, HLA-DRB1*03:01,; also recorded: HLA-DRB1*04:01, HLA-DRB1*04:05,; also recorded: HLA-DRB1*07:01, HLA-DRB1*11:01,"
ENAIVTSRKVQEEVF (Leishmania major) [SEQ ID NO: 101],Concatenation affinity for HLA alleles of class II,"LmlRAB-IIB peptides, Table 2","HLA-DRB1*03:01, HLA-DRB1*07:01,; also recorded: HLA-DRB1*08:02, HLA-DRB1*11:01,; also recorded: HLA-DRB1*12:01"
FDLFTDVHYSEVSAK (Leishmania major) [SEQ ID NO: 103],Concatenation affinity for HLA alleles of class II,"LmlRAB-IIB peptides, Table 2","HLA-DRB1*01:01, HLA-DRB1*03:01,; also recorded: HLA-DRB1*07:01, HLA-DRB1*09:01,; also recorded: HLA-DPA1*03:01/DPB1*04:02,; also recorded: HLA-DPA1*02:01/HLA-DPB1*14:01"
FLTDEKTSLVYGDGG (listed as Leishmania infantum) [SEQ ID NO: 140],Concatenation affinity for HLA alleles of class II,"PSA KC-2.6 peptides, Table 3","HLA-DRB1*03:01, HLA-DRB3*01:01"
FSNMGLLLS (listed as Leishmania infantum) [SEQ ID NO: 172],Concatenation affinity for HLA alleles of class II,"PSA KC-2.7 core, Table 3",HLA-DRB1*11:01
GEGYFLTDEKTSLVY (listed as Leishmania infantum) [SEQ ID NO: 141],Concatenation affinity for HLA alleles of class II,"PSA KC-2.6 peptides, Table 3","HLA-DRB1*01:01, HLA-DRB1*03:01,; also recorded: HLA-DRB1*04:01, HLA-DRB1*04:05,; also recorded: HLA-DRB1*07:01, HLA-DRB1*11:01,; also recorded: HLA-DRB1*12:01, HLA-DRB1*13:02,; also recorded: HLA-DRB3*01:01, HLA-DRB3*02:02,; also recorded: HLA-DPA1*03:01/DPB1*04:02,; also recorded: HLA-DPA1*02:01/HDPB1*14:01"
GRHLSIVADHMPHLD (Leishmania major) [SEQ ID NO: 86],Concatenation affinity for HLA alleles of class II,"LmLRAB-IIA peptides, Table 2","HLA-DRB3*01:01,; also recorded: HLA-DRB1*03:01,; also recorded: HLA-DRB1*13:02,"
GRLHSVVGRHLSIVA (Leishmania major) [SEQ ID NO: 79],Concatenation affinity for HLA alleles of class II,"LmLRAB-IIA peptides, Table 2","HLA-DRB1*07:01,; also recorded: HLA-DRB5*01:01,; also recorded: HLA-DRB1*15:01,; also recorded: HLA-DRB1*11:01,; also recorded: HLA-DRB1*09:01,; also recorded: HLA-DRB4*01:01"
GRSENAIVTSRKVQE (Leishmania major) [SEQ ID NO: 104],Concatenation affinity for HLA alleles of class II,"LmlRAB-IIB peptides, Table 2","HLA-DRB1*01:01, HLA-DRB1*03:01,; also recorded: HLA-DRB1*07:01, HLA-DRB1*11:01,; also recorded: HLA-DRB1*12:01, HLA-DRB5*01:01"
GRSLKAINA (Leishmania major) [SEQ ID NO: 43],Affinity HLA alleles of class II,,HLA-DRB1*01:01
GRSLKAINAQMSMSH (Leishmania major) [SEQ ID NO: 35],Concatenation affinity for the HLA alleles of class II,,"HLA-DRB1*15:01, HLA-DRB1*01:01, HLA-DRB1*04:05,; also recorded: HLA-DRB1*07:01, HLA-DRB1*08:02, HLA-DRB1*09:01,; also recorded: HLA-DRB1*11:01, HLA-DRB4*01:01, HLA-DRB5*01:01,; also recorded: HLA-DRB1*04:01, HLA-DRB1*13:02"
GSDYSHSMIRDLDFS (listed as Leishmania infantum) [SEQ ID NO: 159],Concatenation affinity for HLA alleles of class II,"PSA KC-2.7 peptides, Table 3","HLA-DRB1*01:01, HLA-DRB1*04:05,; also recorded: HLA-DRB1*07:01, HLA-DRB1*09:01,; also recorded: HLA-DRB4*01:01, HLA-DRB5*01:01,; also recorded: HLA-DPA1*02:01/DPB1*14:01"
